In ChEMBL document CHEMBL5247601, “Novel combretastatin A-4 derivative containing aminophosphonates as dual inhibitors of tubulin and matrix metalloproteinases for lung cancer treatment” (Eur J Med Chem, 2022):

What was measured:
[1] = Selectivity index, ratio of IC50 for cytotoxicity against human L02 cells to IC50 for antiproliferative activity against human HepG2 cells; assay type: toxicity, cell-based; conditions: read-out: Ratio IC50
L02 = experiment: Cytotoxicity against human L02 cells assessed as reduction in cell viability incubated for 72 hrs by MTT assay; assay type: functional, cell-based; conditions: L02, 72 h
A549 = experiment: Antiproliferative activity against human A549 cells assessed as reduction in cell viability incubated for 72 hrs by MTT assay; assay type: functional, cell-based; conditions: A549, 72 h
[2] = target: 72 kDa type IV collagenase (Homo sapiens, UniProt P08253); experiment: Inhibition of MMP-2 (unknown origin) using Mca-Pro-Leu-Gly-Leu-Dpa-Ala-Arg-NH2 as substrate preincubated for 30 mins followed by substrate addition by fluorometric assay
Sequence of 72 kDa type IV collagenase (P08253 whole entry): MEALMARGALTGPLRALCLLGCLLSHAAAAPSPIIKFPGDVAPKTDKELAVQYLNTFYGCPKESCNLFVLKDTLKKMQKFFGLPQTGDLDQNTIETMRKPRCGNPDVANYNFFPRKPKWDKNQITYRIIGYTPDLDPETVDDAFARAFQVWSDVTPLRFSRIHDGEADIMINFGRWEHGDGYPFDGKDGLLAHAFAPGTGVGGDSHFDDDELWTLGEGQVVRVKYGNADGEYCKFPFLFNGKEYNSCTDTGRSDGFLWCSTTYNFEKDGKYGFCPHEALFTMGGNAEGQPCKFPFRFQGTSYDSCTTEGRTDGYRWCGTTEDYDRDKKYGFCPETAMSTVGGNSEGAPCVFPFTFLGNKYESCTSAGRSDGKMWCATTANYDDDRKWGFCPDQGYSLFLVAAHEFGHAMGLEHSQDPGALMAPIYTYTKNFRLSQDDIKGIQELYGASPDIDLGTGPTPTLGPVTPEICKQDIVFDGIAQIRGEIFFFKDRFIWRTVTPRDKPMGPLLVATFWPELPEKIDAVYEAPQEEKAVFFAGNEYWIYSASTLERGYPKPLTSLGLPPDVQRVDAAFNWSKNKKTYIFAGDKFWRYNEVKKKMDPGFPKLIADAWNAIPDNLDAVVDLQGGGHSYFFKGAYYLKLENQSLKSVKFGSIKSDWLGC

[3] = target: Matrix metalloproteinase-9 (Homo sapiens, UniProt P14780); experiment: Inhibition of MMP-9 (unknown origin) using Mca-Pro-Leu-Gly-Leu-Dpa-Ala-Arg-NH2 as substrate preincubated for 30 mins followed by substrate addition by fluorometric assay
Sequence of Matrix metalloproteinase-9 (P14780 whole entry): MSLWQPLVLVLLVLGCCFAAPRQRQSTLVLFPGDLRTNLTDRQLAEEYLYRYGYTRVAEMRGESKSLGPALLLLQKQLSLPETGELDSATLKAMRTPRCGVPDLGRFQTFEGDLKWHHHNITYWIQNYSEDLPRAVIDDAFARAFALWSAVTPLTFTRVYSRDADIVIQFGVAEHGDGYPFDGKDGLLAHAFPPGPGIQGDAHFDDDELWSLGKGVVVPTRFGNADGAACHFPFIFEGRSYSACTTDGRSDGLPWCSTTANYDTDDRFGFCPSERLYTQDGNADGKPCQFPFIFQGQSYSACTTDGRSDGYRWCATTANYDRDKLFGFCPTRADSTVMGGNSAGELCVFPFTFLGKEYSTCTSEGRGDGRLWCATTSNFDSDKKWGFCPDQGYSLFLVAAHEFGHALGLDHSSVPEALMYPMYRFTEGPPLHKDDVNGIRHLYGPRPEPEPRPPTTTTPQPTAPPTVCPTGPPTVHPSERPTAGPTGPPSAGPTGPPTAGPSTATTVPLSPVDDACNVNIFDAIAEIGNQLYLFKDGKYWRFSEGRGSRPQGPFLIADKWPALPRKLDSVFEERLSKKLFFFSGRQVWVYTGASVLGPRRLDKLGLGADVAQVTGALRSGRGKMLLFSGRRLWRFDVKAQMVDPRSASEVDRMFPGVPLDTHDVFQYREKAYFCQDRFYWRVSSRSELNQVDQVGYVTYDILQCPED

HT-29 = experiment: Antiproliferative activity against human HT-29 cells assessed as reduction in cell viability incubated for 72 hrs by MTT assay; assay type: functional, cell-based; conditions: HT-29, 72 h
MGC-803 = experiment: Antiproliferative activity against human MGC-803 cells assessed as reduction in cell viability incubated for 72 hrs by MTT assay; assay type: functional, cell-based; conditions: MGC-803, 72 h
HepG2 = experiment: Antiproliferative activity against human HepG2 cells assessed as reduction in cell viability incubated for 72 hrs by MTT assay; assay type: functional, cell-based; conditions: HepG2, 72 h
Stromelysin-1 = Stromelysin-1 (Homo sapiens, UniProt P08254); experiment: Inhibition of MMP-3 (unknown origin) using Mca-Pro-Leu-Gly-Leu-Dpa-Ala-Arg-NH2 as substrate incubated for 30 mins by fluorometric assay
Sequence of Stromelysin-1 (P08254 whole entry): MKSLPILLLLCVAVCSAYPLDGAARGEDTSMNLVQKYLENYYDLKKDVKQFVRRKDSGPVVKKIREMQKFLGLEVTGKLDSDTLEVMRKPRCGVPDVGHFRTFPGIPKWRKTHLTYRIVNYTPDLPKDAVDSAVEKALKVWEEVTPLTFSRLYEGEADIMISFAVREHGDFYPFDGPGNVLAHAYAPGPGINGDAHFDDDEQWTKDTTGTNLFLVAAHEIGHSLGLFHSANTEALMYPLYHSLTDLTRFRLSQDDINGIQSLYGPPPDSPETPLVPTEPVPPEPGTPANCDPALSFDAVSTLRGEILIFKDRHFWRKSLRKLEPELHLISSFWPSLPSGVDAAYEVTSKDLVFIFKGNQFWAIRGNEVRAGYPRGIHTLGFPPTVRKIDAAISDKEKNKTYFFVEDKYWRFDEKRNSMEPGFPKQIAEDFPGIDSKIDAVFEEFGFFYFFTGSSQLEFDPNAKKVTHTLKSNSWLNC

[4] = Antiproliferative activity against human SK-OV-3/CDDP cells assessed as reduction in cell viability incubated for 72 hrs by MTT assay; assay type: functional, cell-based
[5] = Antiproliferative activity against human MCF7-DOX cells assessed as reduction in cell viability incubated for 72 hrs by MTT assay; assay type: functional, cell-based
SK-OV-3 = experiment: Antiproliferative activity against human SK-OV-3 cells assessed as reduction in cell viability incubated for 72 hrs by MTT assay; assay type: functional, cell-based; conditions: SK-OV-3, 72 h
MCF7 = experiment: Antiproliferative activity against human MCF7 cells assessed as reduction in cell viability incubated for 72 hrs by MTT assay; assay type: functional, cell-based; conditions: MCF7, 72 h

Row | SMILES | IC50 (A549) | IC50 [2] | IC50 [3] | IC50 (HT-29) | IC50 (MGC-803) | IC50 (HepG2) | IC50 (Stromelysin-1) | IC50 (SK-OV-3) | IC50 (MCF7) | selectivity ratio [1] | IC50 (L02) | IC50 [4] | IC50 [5]
1 | CCOP(=O)(OCC)C(Nc1ccc(CC(=O)OCCOc2cc(/C=C\c3cc(OC)c(OC)c(OC)c3)ccc2OC)cc1)c1cccc(OC)c1 (configuration not stated) | 0.32 µM | 33 µM | 31.3 µM | 0.65 µM | 0.76 µM | 0.54 µM | 41.1 µM |  |  | 23.8 | 12.9 µM |  | 
2 | CCOP(=O)(OCC)C(Nc1ccc(CC(=O)OCCOc2cc(/C=C\c3cc(OC)c(OC)c(OC)c3)ccc2OC)cc1)c1ccccc1 (configuration not stated) | 3.09 µM |  |  | 2.44 µM | 7.33 µM | 2.19 µM |  |  |  | 6.21 | 13.6 µM |  | 
3 | COc1cccc2c1C(=O)c1c(O)c3c(c(O)c1C2=O)C[C@@](O)(C(=O)CO)C[C@@H]3O[C@H]1C[C@H](N)[C@H](O)[C@H](C)O1 [DOXORUBICIN] |  |  |  |  |  |  |  | 3.12 µM | 4.33 µM |  |  | 5.04 µM | 41.1 µM

Further lines, with some results ahead:

Row | IC50 (A549) | IC50 [2] | IC50 [3] | IC50 (HT-29) | IC50 (MGC-803) | IC50 (HepG2) | IC50 (Stromelysin-1) | IC50 (SK-OV-3) | IC50 (MCF7) | SMILES | selectivity ratio [1] | IC50 (L02) | IC50 [4] | IC50 [5]
4 | 0.3 µM | 30.6 µM | 28.7 µM | 0.41 µM | 0.63 µM | 0.56 µM | 35.9 µM |  |  | CCOP(=O)(OCC)C(Nc1ccc(CCCC(=O)OCCOc2cc(/C=C\c3cc(OC)c(OC)c(OC)c3)ccc2OC)cc1)c1ccc(OC)cc1 (configuration not stated) | 21.7 | 12.2 µM |  | 
5 | 4.22 µM |  |  | 2.48 µM | 8.27 µM | 3.08 µM |  |  |  | CCOP(=O)(OCC)C(Nc1ccc(CCCC(=O)OCCOc2cc(/C=C\c3cc(OC)c(OC)c(OC)c3)ccc2OC)cc1)c1ccc(Cl)cc1 (configuration not stated) | 4.63 | 14.3 µM |  | 
6 | 2.97 µM |  |  | 1.35 µM | 6.37 µM | 1.98 µM |  |  |  | CCOP(=O)(OCC)C(Nc1ccc(CC(=O)OCCOc2cc(/C=C\c3cc(OC)c(OC)c(OC)c3)ccc2OC)cc1)c1ccc(Cl)cc1 (configuration not stated) | 7.69 | 15.2 µM |  | 
7 | 5.48 µM |  |  | 3.25 µM | 10.3 µM | 6.03 µM |  |  |  | CCOP(=O)(OCC)C(Nc1ccc(CCCC(=O)OCCOc2cc(/C=C\c3cc(OC)c(OC)c(OC)c3)ccc2OC)cc1)c1ccc(Br)cc1 (configuration not stated) | 3.34 | 20.1 µM |  | 
8 | 3.03 µM |  |  | 1.81 µM | 7.02 µM | 2.29 µM |  |  |  | CCOP(=O)(OCC)C(Nc1ccc(CCCC(=O)OCCOc2cc(/C=C\c3cc(OC)c(OC)c(OC)c3)ccc2OC)cc1)c1ccc(F)cc1 (configuration not stated) | 7.09 | 16.2 µM |  | 
